# Assay results from ChEMBL document CHEMBL2417420, “Autotaxin inhibition: development and application of computational tools to identify site-selective lead compounds” (Bioorg Med Chem, 2013).
# Activity calls are given as the source filed them. The calls are words filed in the database; no cut-off is given here.
# How the values were obtained:
# [1] = molecular target: T1, Autotaxin (Homo sapiens, UniProt Q13822); assay: Activation of C-terminal FLAG-tagged human recombinant autotaxin using paranitrophenyl thymidine monophosphate as substrate at 10 uM measured every 2 mins by […] assay
# [2] = molecular target: T1, Autotaxin; assay: Inhibition of C-terminal FLAG-tagged human recombinant autotaxin using synthetic substrate FS-3 measured every 2 mins by FRET assay
# [3] = molecular target: T1, Autotaxin; assay: Inhibition of C-terminal FLAG-tagged human recombinant autotaxin using synthetic substrate FS-3 at 10 uM measured every 2 mins by FRET assay relative to control
# [4] = molecular target: T1, Autotaxin; assay: Activation of C-terminal FLAG-tagged human recombinant autotaxin using paranitrophenyl thymidine monophosphate as substrate measured every 2 mins by […] assay
# [5] = molecular target: T1, Autotaxin; assay: Competitive inhibition of C-terminal FLAG-tagged human recombinant autotaxin using synthetic substrate FS-3 by Michaelis-Menten equation analysis
# [6] = test system: A2058; assay: Cytotoxicity against human A2058 cells assessed as reduction of cell number at 30 uM after 24 hrs by MTS assay; format: functional
# [7] = test system: A2058; assay: Reduction of autotaxin and lysophosphatidyl choline-induced cell migration in human A2058 cells at 30 uM after 4 to 48 hrs by monolayer scratch assay; format: functional; design: scale not given: the % may be the effect or the level left
# [8] = test system: A2058; assay: Reduction of cell migration in human A2058 cells at 30 uM after 4 to 48 hrs by monolayer scratch assay; format: functional; design: scale not given: the % may be the effect or the level left
# [9] = test system: A2058; assay: Reduction of autotaxin-induced cell migration in human A2058 cells at 30 uM after 4 to 48 hrs by monolayer scratch assay; format: functional; design: scale not given: the % may be the effect or the level left
# [10] = molecular target: T1, Autotaxin; assay: Inhibition of C-terminal FLAG-tagged human recombinant autotaxin using paranitrophenyl thymidine monophosphate as substrate at 10 uM measured every 2 mins by […] assay relative to control
# [11] = test system: A2058; assay: Reduction of lysophosphatidyl choline-induced cell migration in human A2058 cells at 30 uM after 4 to 48 hrs by monolayer scratch assay; format: functional; design: scale not given: the % may be the effect or the level left
# [12] = test system: A2058; assay: Cytotoxicity against human A2058 cells assessed as reduction lysophosphatidic acid-induced of cell proliferation at 30 uM after 24 hrs by MTS assay; format: functional; design: scale not given: the % may be the effect or the level left
# [13] = test system: A2058; assay: Reduction of lysophosphatidic acid-induced cell migration in human A2058 cells at 30 uM after 4 to 48 hrs by monolayer scratch assay; format: functional; design: scale not given: the % may be the effect or the level left
# [14] = test system: A2058; assay: Cytotoxicity against human A2058 cells assessed as reduction autotaxin-induced of cell proliferation at 30 uM after 24 hrs by MTS assay; format: functional; design: scale not given: the % may be the effect or the level left
# [15] = test system: A2058; assay: Cytotoxicity against human A2058 cells assessed as reduction lysophosphatidyl choline and autotaxin-induced of cell proliferation at 30 uM after 24 hrs by MTS assay; format: functional; design: scale not given: the % may be the effect or the level left
# [16] = test system: A2058; assay: Cytotoxicity against human A2058 cells assessed as reduction lysophosphatidyl choline-induced of cell proliferation at 30 uM after 24 hrs by MTS assay; format: functional; design: scale not given: the % may be the effect or the level left
structure (smiles),measurement,setting,value
CCOc1cc(/C=C2/SC(=S)N(Cc3ccccc3)C2=O)ccc1OC(=O)c1ccc(F)cc1,Activity,[1],Active
O=C(O)c1ccc(-c2ccc(/C=C3/SC(=O)N(Cc4ccc(F)cc4)C3=O)o2)cc1,IC50,[2],4400 nM
same,inhibition,[3],68.8%
CCOC(=O)C1=C(C)N=c2s/c(=C/c3cccc(OC)c3O)c(=O)n2[C@@H]1c1ccccc1,Activity,[1],Active
CC(C)C1C(=O)Nc2cc(S(=O)(=O)NCc3ccccc3)ccc2N1C(=O)CN1CCCCC1 (stereo not drawn),IC50,[2],6200 nM
same,inhibition,[3],62.3%
O=C(O)c1cc(-c2ccc(/C=C3\S/C(=N\c4ccccc4)N(Cc4ccccc4)C3=O)o2)ccc1Cl,Activity,[1],Active
CC1CCC(C(C)C)C(OCC(=O)N2CCC(CCCC3CCN(c4ccc(C(=O)N5CCCC5C(N)=O)cc4)CC3)CC2)C1 (stereo not drawn),EC50,[4],2790 nM
same,Ki,[5],100 nM
same,IC50,[2],800 nM
same,Activity,[6],Active
same,inhibition,[3],90.5%
CC(C)c1ccc(OCC(=O)N2CCN(c3ccc(C(=O)N4CCCC4C(N)=O)cn3)CC2C)cc1 (stereo not drawn),Ki,[5],1600 nM
same,Activity,[7],16%
same,IC50,[2],1200 nM
same,Activity,[8],43%
same,Activity,[9],19%
same,inhibition,[10],29.3%
same,Activity,[6],inactive
same,inhibition,[3],88.5%
same,Activity,[11],35%
Cc1cc(C)cc(CC(=O)N2CCC(CCCC3CCN(c4ccc(C(=O)NC(C(N)=O)C(C)O)cn4)CC3)CC2)c1 (stereo not drawn),Ki,[5],17900 nM
same,IC50,[2],900 nM
same,Activity,[8],inactive
same,Activity,[6],inactive
same,inhibition,[3],83.2%
CC(O)C(NC(=O)c1ccc(N2CCC(CCCC3CCN(C(=O)Cc4ccc(-c5ccccc5)cc4)CC3)CC2)nc1)C(N)=O (stereo not drawn),EC50,[4],4440 nM
same,Ki,[5],200 nM
same,IC50,[2],900 nM
same,Activity,[6],Active
same,inhibition,[3],85.3%
COc1cc(C2CC(=O)NC(SCC(=O)Nc3ccc(Br)cc3)=C2C#N)ccc1O (stereo not drawn),Ki,[5],9800 nM
same,Activity,[7],60%
same,IC50,[2],3800 nM
same,Activity,[8],60%
same,Activity,[9],61%
same,Activity,[12],28%
same,Activity,[13],57%
same,inhibition,[3],68.6%
same,Activity,[11],59%
CC(=O)Nc1ccc(S(=O)(=O)N/N=C/c2ccc(OCc3ccccc3)cc2)cc1,Activity,[1],Active
O=C(Cn1c(=O)sc2cccc(Cl)c21)OCc1cccc(Oc2ccccc2)c1,Activity,[1],Active
CCCc1ccc(S(=O)(=O)Oc2ccccc2-c2cc(CC)n(CCN3CCCCC3)n2)cc1,IC50,[2],4900 nM
same,inhibition,[3],61.5%
CC(O)C(NC(=O)c1ccc(N2CCN(C(=O)Cc3cccc4ccccc34)CC2)nc1)C(N)=O (stereo not drawn),Activity,[1],Active
CC(C)Cc1ccc(C(C)C(=O)N2CCC(CCCC3CCN(c4ccc(C(=O)NC(C(N)=O)C(C)O)cn4)CC3)CC2)cc1 (stereo not drawn),EC50,[4],4310 nM
same,Ki,[5],800 nM
same,IC50,[2],800 nM
same,Activity,[6],Active
same,inhibition,[3],87.3%
COc1cc(/C=C2/SC(=S)N(Cc3ccccc3)C2=O)ccc1OC(=O)c1ccc(F)cc1,Activity,[1],Active
COc1ccc(Cl)cc1NC(=O)CSC1=C(C#N)C(c2ccc(OC)c(OC)c2)CC(=O)N1 (stereo not drawn),Activity,[1],Active
COc1cc(/C=c2/sc3nc4ccccc4n3c2=O)cc(Br)c1OCc1ccccc1Cl,Activity,[1],Active
CC(O)C(NC(=O)c1ccc(N2CCC(CCCC3CCN(C(=O)CCC(=O)c4ccccc4)CC3)CC2)nc1)C(N)=O (stereo not drawn),Ki,[5],500 nM
same,Activity,[7],38%
same,IC50,[2],900 nM
same,Activity,[9],33%
same,Activity,[14],30%
same,Activity,[12],27%
same,Activity,[13],22%
same,inhibition,[3],87.4%
same,Activity,[11],28%
CC1CN(c2ccc(C(=O)N3CCCC3C(N)=O)cn2)CCC1C(=O)COc1cccc2ccccc12 (stereo not drawn),Activity,[15],27%
same,Ki,[5],1600 nM
same,Activity,[7],25%
same,IC50,[2],1000 nM
same,Activity,[8],39%
same,Activity,[9],34%
same,inhibition,[10],10.6%
same,Activity,[14],36%
same,Activity,[12],44%
same,Activity,[13],30%
same,Activity,[6],49%
same,inhibition,[3],64.7%
same,Activity,[11],24%
same,Activity,[16],36%
O=C(O)c1ccccc1-c1ccc(/C=C2/SC(=S)N(Cc3ccccc3)C2=O)o1,IC50,[2],2400 nM
same,inhibition,[3],93.7%
COc1ccc(OCCNC(=S)Nc2ccc(-c3ccccc3)cc2)cc1,Activity,[1],Active
COC(=O)C1C(=O)NC(SCC(=O)Nc2ccc(C)cc2Br)=C(C#N)C1c1ccc(OC)cc1 (stereo not drawn),Activity,[1],Active
CCOC(=O)C1=C(C)N=c2s/c(=C/c3ccc(O)c(OC)c3)c(=O)n2[C@H]1c1cccc2ccccc12,Activity,[1],Active
COc1cc(CCNC(=O)c2ccc3c(c2)nc(-c2cccc4ccccc24)n3CCc2ccc(OC)c(OC)c2)cc(OC)c1,IC50,[2],1100 nM
same,inhibition,[3],63.8%
COc1cccc(CCNC(=O)c2ccc3c(c2)nc(-c2cc(OC)c(OC)c(OC)c2)n3CCc2ccc(OC)c(OC)c2)c1,inhibition,[3],30%
COc1cc(/C=C2/SC(=S)N(Cc3ccccc3)C2=O)ccc1OC(=O)c1ccco1,Activity,[1],Active
CCCSC1=C(C#N)C(c2cc(Br)c(O)c(OC)c2)CC(=O)N1 (stereo not drawn),Activity,[1],Active
COc1ccc(CNC(=O)C(C)(C)NC(=O)c2cc(-c3ccoc3)nc3ccccc23)c(OC)c1,inhibition,[3],10%
CC(C)(C)c1cc(/C=C/C(=O)Nc2ccc(CNC(=O)C(C#N)=C3CCCCC3)cc2)cc(C(C)(C)C)c1O,inhibition,[3],20%
